# Measured values: patent publication US20220168384A1, “Anti-Bacterial Combination Therapy” (McMaster University, priority 2019, published 2022)
# Key:
# P. aeruginosa PAO1 = assay: TS dose response assay (biofilm and planktonic growth); type: cell-based, Pseudomonas aeruginosa
# Procedure: Briefly, P. aeruginosa was inoculated in 5 mL of LB and grown at 37° C. overnight, shaking at 200 rpm, and subsequently standardized to an OD600 of ˜ 0.1 in 10:90. For the initial screen, 1 mM compound stocks in DMSO were diluted 1:100 in standardized cell suspension (1.5 μL of compound stock in 148.5 μL of cell suspension) to a final concentration of 10 μM. Control wells contained 10:90 plus 1% DMSO (sterility control) or standardized cell suspension plus 1% DMSO (growth control). Biofilms were formed on polystyrene peg lids (Nunc). After placement of the peg lid, the plate was sealed with parafilm to prevent evaporation and incubated for 16 h at 37° C., 200 rpm. Following incubation, the 96-peg lid was removed and planktonic density in the 96 well plate measured at OD600 to assess the effect of test compounds on bacterial growth. The lid was transferred to a new microtiter plate containing 200 μl of 1× phosphate-buffered saline (PBS) per well for 10 min to wash off any loosely adherent bacterial cells, then to a microtiter plate containing 200 μL of 0.1% (wt/vol) crystal violet (CV) per well for 15 min. Following staining, the lid was washed with 70 mL of dH2O, in a single well tray, for 10 min. This step was repeated four times to ensure complete removal of excess CV. The lid was transferred to a 96-well plate containing 200 μL of 33% (vol/vol) acetic acid per well for 5 min to elute the bound CV. The absorbance of the eluted CV was measured at 600 nm (BioTek ELx800), and the results plotted as percent of the DMSO control using Prism (Graphpad). Screens were performed in duplicate. […]. Compounds of interest were further evaluated using the same assay but over a wider range of concentrations (dose-response assay). […].
# For TS dose response assays, TS stock solutions were diluted in DMSO and 2 μL of the resulting solutions plus 148 μL of a bacterial suspension standardized to an OD600 of ˜0.1 in 10:90 were added to a 96 well plate in triplicate, as described above. Control wells contained 148 μL of 10:90+1.3% DMSO (sterility control) or standardized bacterial suspension+1.3% DMSO (growth control). For ethylenediamine-N,N′-bis(2-hydroxyphenylacetic acid) (EDDHA) alone or with FeCl3 experiments, 2 μL of each were added as aqueous solutions to reach final concentrations of 0.1 μM EDDHA and 100 μM FeCl3, and the amount of bacterial suspension adjusted to keep the total well volume at 150 μL. Controls for EDDHA and FeCl3 were 2 μL of sterile dH2O. Biofilms were grown for 16 h at 37° C., 200 rpm, then stained and quantified as described above. Assays were performed in triplicate and results were graphed using Prism (Graphpad) as a percentage of the DMSO control.
# Deletion mutants lacking the outer membrane components of the 4 major resistance-nodulation-division (RND) efflux systems of P. aeruginosa (MexAB-OprM, MexXY-OprM, MexCD-OprJ, and MexEF-OpmD) were generated. Briefly, the pairs of primers listed in Table 3 were used to amplify regions up- and downstream of the gene to be deleted. The PCR products were digested with the restriction enzymes indicated in the primer sequences and the resulting fragments ligated into the suicide vector pEX18Gm. After DNA sequencing validation of the constructs, they were introduced into E. coli SM10 for biparental mating into P. aeruginosa PAO1. Mating mixtures were plated on Pseudomonas isolation agar containing 200 μg/ml gentamicin (Gm) to counterselect the donor. Gm-sensitive double recombinants were selected on LB agar, with no salt and with 5% (wt/vol) sucrose. Gm-sensitive deletion mutants were identified by PCR and validated by DNA sequencing of the deletion junction.
# [1] = tested on: P. aeruginosa clinical isolates; assay: Clinical isolates testing, P. aeruginosa; type: cell-based, Pseudomonas aeruginosa; conditions: Pseudomonas aeruginosa; approximately 1 in 10 of 96 clinical isolates; 10:90
# Procedure: Clinical isolates of P. aeruginosa and A. baumannii were inoculated from −80° C. stocks into 200 μL LB broth and grown with shaking at 200 rpm, 16 h, 37° C. in Nunc 96-well plates. The overnight cultures were subcultured (1:25 dilution) into 10:90 and grown with shaking at 200 rpm, 2 h, 37° C. Vehicle controls consisted of 4 μL of DMSO, 144 μL 10:90 and 2 μL of subculture. Sterile controls consisted of 4 μL of DMSO and 146 μL 10:90. […]. The final volume of each well was 150 μL and each checkerboard was repeated at least three times. Plates were incubated with shaking at 200 rpm, 16 h, 37° C. and OD600 was measured (Multiskan Go—Thermo Fisher Scientific). The results were plotted as percent of control (wells containing only DMSO) using Prism (GraphPad).
# Clinical isolates were grown and tested as described in Example 1. Briefly, clinical isolates were inoculated from glycerol stocks stored at −80° C. into Nunc 96-well plates and grown overnight at 37° C., for 16 h with shaking in LB (200 rpm). Overnights were subcultured (1:25) into fresh 10:90 medium and grown for 2 h under the same growth conditions. Subcultures were diluted 1:75 in fresh 10:90. Compounds were diluted 1:75 to obtain the final concentration. DOXY and CLI were added at a final concentration of 1 μg/mL, CO was used at 2 μg/mL, TRO was used at 4 μg/mL, TS was used at 8.3 μg/mL, and DSX was used at 32 μg/mL. Vehicle and sterility controls were included. Plates were incubated overnight with the same conditions. The OD600 was read (Multiscan Go—Thermo Fisher Scientific), analyzed using Excel, and the data plotted using Prism (GraphPad).
# Culture conditions, checkerboard assays using P. aeruginosa PA14 and dose-response assays were performed as described in Example 1. In addition to TS, other thiopeptides tested were siomycin A (SM), thiocillin I (TC), micrococcin P1 (MC), nosiheptide (NH), berninamycin A (BER), and geninthiocin A (GEN). For dose response assays of the combinations conducted in 10:90, DSX concentration was constant at 64 μg/mL.
# E. coli BW25113 = assay: Thiostrepton susceptibility of E. coli in MHB versus 10:90; type: cell-based, Escherichia coli; conditions: 10:90 medium; up to 10 μM (17 μg/ml) TS
# Excerpt: The susceptibility of P. aeruginosa PA14, E. coli BW25113, A. baumannii C0286, and S. aureus USA300 was compared in MHB versus 10:90 medium. E. coli lacks FpvAB and is resistant to TS in both media.
# P. aeruginosa PA14 = assay: Checkerboards pinned to LB agar (bactericidal activity); type: cell-based, Pseudomonas aeruginosa; conditions: overnight 37° C.
# Procedure: Checkerboards were pinned to LB agar plates using a sterile 96 pin tool. Plates were incubated overnight at 37° C. Independent experiments were conducted 3 times and a representative plate is shown.
# [2] = PAO1, 10:90 medium, dose-dependent, up to 10 μM TS
structure (smiles),measurement,setting,value
"C=C(NC(=O)C(=C)NC(=O)c1csc(C2=N[C@@H]3c4csc(n4)[C@H]4NC(=O)c5csc(n5)[C@H]([C@](C)(O)[C@@H](C)O)NC(=O)[C@H]5CSC(=N5)/C(=C/C)NC(=O)[C@H]([C@@H](C)O)NC(=O)c5csc(n5)[C@]3(CC2)NC(=O)[C@H](C)NC(=O)C(=C)NC(=O)[C@H](C)NC(=O)[C@H]([C@@H](C)CC)N[C@@H]2C=Cc3c([C@H](C)O)cc(nc3[C@H]2O)C(=O)O[C@@H]4C)n1)C(N)=O [TS, thiostrepton]",planktonic cell density and biofilm stimulation with EDDHA and FeCl3,"P. aeruginosa PAO1; PAO1, 10:90 + 0.1 μM EDDHA + 100 μM FeCl3",increased planktonic cell density and reduced biofilm stimulation
same,biofilm stimulation and growth inhibition with EDDHA,"P. aeruginosa PAO1; PAO1, 10:90 + 0.1 μM EDDHA versus 10:90 alone",shifted biofilm stimulation and growth inhibition to lower concentrations of TS
same,biofilm formation,P. aeruginosa PAO1; [2],stimulated biofilm formation
same,planktonic cell density,P. aeruginosa PAO1; [2],decreased planktonic cell density
same,TS concentrations at which planktonic cell density decreased to below the level of detection,"P. aeruginosa PAO1; PAO1, VBMM",> 0.63 µM
same,TS susceptibility on supplementation with casamino acids,"P. aeruginosa PAO1; PAO1, VBMM + 0.1% casamino acids",no change in TS susceptibility
same,TS susceptibility on supplementation with MgCl2,"P. aeruginosa PAO1; PAO1, VBMM + 100 mM MgCl2",no effect on susceptibility
same,TS susceptibility of mutants lacking the major efflux pumps,P. aeruginosa PAO1; PAO1 efflux deletion mutants,near-wild-type susceptibility
same,TS susceptibility on deletion of peptide transport systems,P. aeruginosa PAO1; simultaneous deletion of components of Opp (Npp) and Spp,no effect on TS susceptibility
same,MIC,[1],≥ 5 µM
same,growth,E. coli BW25113,unaffected
same,mode of activity of compound alone,P. aeruginosa PA14,bacteriostatic
